{
  "source": "ChEMBL document CHEMBL5579812",
  "about": "“\"PROTAC\" modified dihydroquinolizinones (DHQs) that cause degradation of PAPD-5 and inhibition of hepatitis A virus and hepatitis B virus, in vitro” (Bioorg Med Chem Lett, 2024)",
  "key": {"Huh-7.5 [1]": {"system": "Huh-7.5", "experiment": "Effect on PAPD7 expression in human Huh7.5 cells at 250 nM incubated for 24 hrs by Western blot analysis", "type": "functional, cell-based"}, "Huh-7.5 [2]": {"system": "Huh-7.5", "experiment": "Effect on PAPD5 expression in human Huh7.5 cells at 250 nM incubated for 24 hrs by Western blot analysis", "type": "functional, cell-based"}, "Huh-7.5 [3]": {"system": "Huh-7.5", "experiment": "Effect on PAPD7 expression in human Huh7.5 cells at 1 uM incubated for 24 hrs by Western blot analysis", "type": "functional, cell-based"}, "Huh-7.5 [4]": {"system": "Huh-7.5", "experiment": "Effect on actin expression in human Huh7.5 cells at 1 uM incubated for 24 hrs by Western blot analysis", "type": "functional, cell-based"}, "[5]": {"experiment": "Inhibition HBsAg secretion in human HepG2.2.15 cells treated for 3 days followed by medium replacement without compound measured after 2 days by CLIA", "type": "functional, cell-based", "details": "HepG2 2.2.15"}, "HepG2.2.15 [6]": {"system": "HepG2.2.15", "experiment": "Inhibition of 2.1 to 3.5 kb HBV mRNA accumulation in human HepG2.2.15 cells at 1 to 2 nM treated for 5 days by northern blot analysis", "type": "functional, cell-based", "details": "Hepatitis B virus, dose 1-2 nM, time 5.0 day"}, "Huh-7.5 [7]": {"system": "Huh-7.5", "experiment": "Effect on PAPD5 expression in human Huh7.5 cells at 1 uM incubated for 24 hrs by Western blot analysis", "type": "functional, cell-based"}, "HepG2.2.15 [8]": {"system": "HepG2.2.15", "experiment": "Inhibition of 2.1 to 3.5 kb HBV mRNA accumulation in human HepG2.2.15 cells at 7.5 to 15 uM treated for 5 days by northern blot analysis", "type": "functional, cell-based", "details": "Hepatitis B virus, dose 7.5-15 µM, time 5.0 day"}, "[9]": {"experiment": "Cytotoxicity against human Huh7.5 cells", "type": "toxicity, cell-based, Huh-7.5"}, "Hepatovirus A": {"system": "Hepatovirus A", "experiment": "Inhibition of replication of Hepatitis A virus expressing 18f-NLuc infected in human Huh7.5 cells treated for 48 hrs by luminescence based analysis", "type": "functional, organism-based", "details": "for IC50: Huh7.5, 48 h"}, "[10]": {"experiment": "Inhibition HBsAg secretion in human Huh-7 cells harboring pHBV1.3 treated for 2 days followed by replacement of medium containing compound measured after 4 days by CLIA", "type": "functional, cell-based"}, "Huh-7.5 [11]": {"system": "Huh-7.5", "experiment": "Effect on actin expression in human Huh7.5 cells at 10 uM incubated for 24 hrs by Western blot analysis", "type": "functional, cell-based"}, "Huh-7.5 [12]": {"system": "Huh-7.5", "experiment": "Effect on PAPD7 expression in human Huh7.5 cells at 10 uM incubated for 24 hrs by Western blot analysis", "type": "functional, cell-based"}, "[13]": {"target": "T1, Protein cereblon/Terminal nucleotidyltransferase 4B (Homo sapiens) (UniProt Q96SW2+Q8NDF8)", "T1 sequence (Q8NDF8 whole entry, looked up)": "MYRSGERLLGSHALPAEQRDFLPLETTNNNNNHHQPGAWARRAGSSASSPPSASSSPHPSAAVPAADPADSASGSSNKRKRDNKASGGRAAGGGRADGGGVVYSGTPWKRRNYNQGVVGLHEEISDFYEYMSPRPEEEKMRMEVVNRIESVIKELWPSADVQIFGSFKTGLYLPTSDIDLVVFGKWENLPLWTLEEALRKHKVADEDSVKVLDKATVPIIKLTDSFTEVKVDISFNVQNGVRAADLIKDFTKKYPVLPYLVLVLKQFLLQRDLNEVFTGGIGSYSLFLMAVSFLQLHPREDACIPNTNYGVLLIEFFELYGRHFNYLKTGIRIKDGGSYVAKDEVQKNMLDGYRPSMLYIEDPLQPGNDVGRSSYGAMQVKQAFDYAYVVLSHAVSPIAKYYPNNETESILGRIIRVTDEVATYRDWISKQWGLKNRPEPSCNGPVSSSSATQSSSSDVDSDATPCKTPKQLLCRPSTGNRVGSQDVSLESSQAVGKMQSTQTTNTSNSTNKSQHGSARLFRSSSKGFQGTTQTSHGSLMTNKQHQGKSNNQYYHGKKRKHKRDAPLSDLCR", "T1 sequence (Q96SW2 whole entry, looked up)": "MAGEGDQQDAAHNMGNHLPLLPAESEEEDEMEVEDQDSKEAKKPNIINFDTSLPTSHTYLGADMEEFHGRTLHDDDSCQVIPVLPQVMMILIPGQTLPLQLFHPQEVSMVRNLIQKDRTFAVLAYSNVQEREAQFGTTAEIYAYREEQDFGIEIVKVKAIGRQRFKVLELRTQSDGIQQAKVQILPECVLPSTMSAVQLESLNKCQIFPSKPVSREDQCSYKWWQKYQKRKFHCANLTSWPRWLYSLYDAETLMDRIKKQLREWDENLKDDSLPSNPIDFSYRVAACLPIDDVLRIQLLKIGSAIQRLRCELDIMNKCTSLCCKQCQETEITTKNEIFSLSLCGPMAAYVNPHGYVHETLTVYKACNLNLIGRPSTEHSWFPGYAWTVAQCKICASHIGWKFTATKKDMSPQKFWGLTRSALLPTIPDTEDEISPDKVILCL", "experiment": "PROTAC activity at CRBN/PAPD5 in human Huh7.5 cells assessed as protein degradation at 10 uM incubated for 24 hrs by Western blot analysis", "type": "cell-based"}, "[14]": {"target": "T1, Protein cereblon/Terminal nucleotidyltransferase 4B (Homo sapiens)", "experiment": "PROTAC activity at CRBN/PAPD5 in human Huh7.5 cells assessed as protein degradation at 10 uM incubated for 24 hrs in presence of epoxomicin by Western blot analysis", "type": "cell-based"}, "[15]": {"experiment": "Cytotoxicity against human Huh-7 cells assessed as cell viability by Cell Titer Glo assay", "type": "toxicity, cell-based"}},
  "note": "Active and inactive are the calls of the source. The rule behind the calls is not given here.",
  "data": [
    {"smiles": "CC[C@H](C)[C@H](NC(=O)[C@H]([C@@H](C)CC)N(C)C(C)=O)C(=O)N[C@H](C(=O)N[C@@H](CC(C)C)C(=O)[C@@]1(C)CO1)[C@@H](C)O", "values": [
      {"measurement": "Activity", "setting": "Huh-7.5 [1]", "result": "inactive"},
      {"measurement": "Activity", "setting": "Huh-7.5 [2]", "result": "inactive"}
    ]},
    {"smiles": "COCCCOc1cc2c(cc1OC)-c1cc(=O)c(C(=O)O)cn1[C@H](C(C)C)C2", "values": [
      {"measurement": "Activity", "setting": "Huh-7.5 [3]", "result": "inactive"},
      {"measurement": "Activity", "setting": "Huh-7.5 [4]", "result": "inactive"},
      {"measurement": "IC50", "setting": "[5]", "result": 0.001, "unit": "µM"},
      {"measurement": "inhibition", "setting": "HepG2.2.15 [6]", "result": "Active"},
      {"measurement": "Activity", "setting": "Huh-7.5 [7]", "result": "inactive"}
    ]},
    {"smiles": "COc1cc2c(cc1OCCCNC(=O)CCOCCOCCOCCNc1cccc3c1C(=O)N(C1CCC(=O)NC1=O)C3=O)C[C@@H](C(C)C)n1cc(C(=O)O)c(=O)cc1-2", "note": "(some centres not stated)", "values": [
      {"measurement": "inhibition", "setting": "HepG2.2.15 [8]", "result": "Active"},
      {"measurement": "CC50", "setting": "[9]", "result": "> 50", "unit": "µM"},
      {"measurement": "inhibition", "setting": "Hepatovirus A", "result": "Dose-Dependent Effect"},
      {"measurement": "IC50", "setting": "Hepatovirus A", "result": 0.576, "unit": "µM"}
    ]},
    {"smiles": "COc1cc2c(cc1OCCCNC(=O)CCOCCOCCOCCOCCOCCOCCNc1cccc3c1C(=O)N(C1CCC(=O)NC1=O)C3=O)C[C@@H](C(C)C)n1cc(C(=O)O)c(=O)cc1-2", "note": "(some centres not stated)", "values": [
      {"measurement": "inhibition", "setting": "HepG2.2.15 [8]", "result": "Active"},
      {"measurement": "IC50", "setting": "[10]", "result": 10.6, "unit": "µM"},
      {"measurement": "Activity", "setting": "Huh-7.5 [11]", "result": "inactive"},
      {"measurement": "Activity", "setting": "Huh-7.5 [12]", "result": "inactive"},
      {"measurement": "IC50", "setting": "[5]", "result": 16.2, "unit": "µM"},
      {"measurement": "Activity", "setting": "[13]", "result": "Active"},
      {"measurement": "CC50", "setting": "[9]", "result": "> 50", "unit": "µM"},
      {"measurement": "Activity", "setting": "[14]", "result": "inactive"},
      {"measurement": "CC50", "setting": "[15]", "result": "> 50", "unit": "µM"},
      {"measurement": "inhibition", "setting": "Hepatovirus A", "result": "Dose-Dependent Effect"},
      {"measurement": "IC50", "setting": "Hepatovirus A", "result": 0.277, "unit": "µM"}
    ]}
  ]
}
